Measured values: patent US10736883B2, “Triazole furan compounds as agonists of the APJ receptor” (AMGEN INC., priority 2016, dated 2020)

Target: APJ receptor (Homo sapiens (Human), UniProt P35414)
Assay: [35S]GTPγS binding assay on membranes from CHO cells stably expressing human APJ receptor
Format: biochemical
Details: membranes of CHO cells stably expressing human APJ receptor, means of several independent experiments, read-out: Activity hAPJ SPA EC50 IP
Experimental: The human APJ receptor was cloned by polymerase chain reaction and the gene encoding the receptor was subcloned in pFLAG-CMV™-3 expression vector (Sigma, Saint Louis, Mo. USA) in-house at Amgen. A GTPγS binding assay was performed on membranes prepared from CHO cells stably expressing human APJ receptor. The optimum experimental conditions for the concentrations of GDP, MgCl2, and NaCl in the assay buffer were initially determined. The assay was performed in assay buffer [20 mM HEPES, pH 7.5, 5 mM MgCl2, and 0.1% (w/v) BSA with 200 mM NaCl, 3 μM GDP] and membranes expressing human APJ receptor/well along with WGA PS beads. The reaction was initiated by addition of 0.2 nM [^35S]GTPγS (Perkin Elmer Life and Analytical Sciences, Waltham USA) in the absence or presence of various ligands and incubated at RT for 90 min. Nonspecific binding was determined in the presence of 100 μM GTPγS and was always less than 0.2% of total binding. All the results presented are means of several independent experiments and analyzed by non-linear regression methods using commercially available program Prism (GraphPad, San Diego, Calif.) to obtain EC50 detailed in Table 26.

Sequence of APJ receptor (P35414 whole entry): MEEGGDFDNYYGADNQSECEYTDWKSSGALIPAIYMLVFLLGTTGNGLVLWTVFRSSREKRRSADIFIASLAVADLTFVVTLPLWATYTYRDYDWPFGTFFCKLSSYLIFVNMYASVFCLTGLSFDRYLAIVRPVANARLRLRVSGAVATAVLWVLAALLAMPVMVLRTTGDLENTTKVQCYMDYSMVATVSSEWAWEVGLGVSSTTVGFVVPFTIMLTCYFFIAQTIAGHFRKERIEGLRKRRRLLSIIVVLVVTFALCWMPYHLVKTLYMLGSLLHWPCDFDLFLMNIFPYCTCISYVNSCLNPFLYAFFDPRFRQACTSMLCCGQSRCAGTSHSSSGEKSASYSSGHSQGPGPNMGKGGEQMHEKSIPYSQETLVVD

SMILES	EC50 [pM]
COc1cccc(OC)c1-n1c(NS(=O)(=O)[C@H](C)[C@H](O)c2ccnc3c2OCCC3)nnc1-c1ccc(C)o1 (racemic) [Example 291.0, (1R,2R)-1-(3,4-Dihydro-2H-pyrano[3,2-b]pyridin-8-yl)-N-(4-(2,6-dimethoxyphenyl)-5-(5-methyl-2-furanyl)-4H-1,2,4-triazol-3-yl)-1-hydroxy-2-propanesulfonamide and (1S,2S)-1-(3,4-dihydro-2H-pyrano[3,2-b]pyridin-8-yl)-N-(4-(2,6-dimethoxyphenyl)-5-(5-methyl-2-furanyl)-4H-1,2,4-triazol-3-yl)-1-hydroxy-2-propanesulfonamide]	5000
COc1ccccc1-n1c(NS(=O)(=O)[C@@H](C)Cc2ncc(F)cn2)nnc1-c1ccc(C)o1 (racemic) [Example 295.0, (2S)-1-(5-fluoro-2-pyrimidinyl)-N-(4-(2-methoxyphenyl)-5-(5-methyl-2-furanyl)-4H-1,2,4-triazol-3-yl)-2-propanesulfonamide and (2R)-1-(5-fluoro-2-pyrimidinyl)-N-(4-(2-methoxyphenyl)-5-(5-methyl-2-furanyl)-4H-1,2,4-triazol-3-yl)-2-propanesulfonamide]	6100
COc1cccc(OC)c1-n1c(NS(=O)(=O)[C@@H](C)[C@@H](O)c2coc(C)n2)nnc1-c1ccc(C)o1 (racemic) [Example 300.0, (1R,2R)—N-(4-(2,6-Dimethoxyphenyl)-5-(5-methyl-2-furanyl)-4H-1,2,4-triazol-3-yl)-1-hydroxy-1-(2-methyl-1,3-oxazol-4-yl)-2-propanesulfonamide and (1S,2S)—N-(4-(2,6-dimethoxyphenyl)-5-(5-methyl-2-furanyl)-4H-1,2,4-triazol-3-yl)-1-hydroxy-1-(2-methyl-1,3-oxazol-4-yl)-2-propanesulfonamide]	12000
COc1cccc(OC)c1-n1c(NS(=O)(=O)[C@H](C)[C@H](O)c2cccc3nccn23)nnc1-c1ccc(C)o1 (racemic) [Example 306.0, (1R,2R)—N-(4-(2,6-Dimethoxyphenyl)-5-(5-methyl-2-furanyl)-4H-1,2,4-triazol-3-yl)-1-hydroxy-1-imidazo[1,2-a]pyridin-5-yl-2-propanesulfonamide and (1S,2S)—N-(4-(2,6-dimethoxyphenyl)-5-(5-methyl-2-furanyl)-4H-1,2,4-triazol-3-yl)-1-hydroxy-1-imidazo[1,2-a]pyridin-5-yl-2-propanesulfonamide]	18000
C[C@@H](Cc1ncc(F)cn1)S(=O)(=O)Nc1nnc(-c2ccco2)n1-c1ccccc1F (racemic) [Example 312.0, (2R)—N-(4-(2-Fluorophenyl)-5-(2-furanyl)-4H-1,2,4-triazol-3-yl)-1-(5-fluoro-2-pyrimidinyl)-2-propanesulfonamide and (2S)—N-(4-(2-fluorophenyl)-5-(2-furanyl)-4H-1,2,4-triazol-3-yl)-1-(5-fluoro-2-pyrimidinyl)-2-propanesulfonamide]	210000
Cc1ccc(-c2nnc(NS(=O)(=O)[C@@H](C)Cc3ncc(F)cn3)n2C2CCOCC2)o1 (racemic) [Example 317.0, (2S)-1-(5-Fluoro-2-pyrimidinyl)-N-(5-(5-methyl-2-furanyl)-4-(tetrahydro-2H-pyran-4-yl)-4H-1,2,4-triazol-3-yl)-2-propanesulfonamide and (2R)-1-(5-fluoro-2-pyrimidinyl)-N-(5-(5-methyl-2-furanyl)-4-(tetrahydro-2H-pyran-4-yl)-4H-1,2,4-triazol-3-yl)-2-propanesulfonamide]	310000
Cc1ccc(-c2nnc(NS(=O)(=O)[C@@H](C)Cc3ncc(F)cn3)n2C2CC2)o1 (racemic) [Example 319.0, (2R)—N-(4-Cyclopropyl-5-(5-methyl-2-furanyl)-4H-1,2,4-triazol-3-yl)-1-(5-fluoro-2-pyrimidinyl)-2-propanesulfonamide and (2S)—N-(4-cyclopropyl-5-(5-methyl-2-furanyl)-4H-1,2,4-triazol-3-yl)-1-(5-fluoro-2-pyrimidinyl)-2-propanesulfonamide]	610000
COc1cccc(OC)c1-n1c(NS(=O)(=O)[C@H]2C[C@@H](O)CN(c3nc(C)cc(C)n3)C2)nnc1-c1ccc(C)o1 (racemic) [Example 326.0, (3S,5R)—N-(4-(2,6-Dimethoxyphenyl)-5-(5-methylfuran-2-yl)-4H-1,2,4-triazol-3-yl)-1-(4,6-dimethylpyrimidin-2-yl)-5-hydroxypiperidine-3-sulfonamide and (3R,5S)—N-(4-(2,6-dimethoxyphenyl)-5-(5-methylfuran-2-yl)-4H-1,2,4-triazol-3-yl)-1-(4,6-dimethylpyrimidin-2-yl)-5-hydroxypiperidine-3-sulfonamide]	240
COc1cccc(OC)c1-n1c(NS(=O)(=O)[C@H]2C[C@@H](O)CN(c3ncc(Cl)cn3)C2)nnc1-c1ccc(C)o1 (racemic) [Example 328.0, (3S,5R)-1-(5-Chloro-2-pyrimidinyl)-N-(4-(2,6-dimethoxyphenyl)-5-(5-methyl-2-furanyl)-4H-1,2,4-triazol-3-yl)-5-hydroxy-3-piperidinesulfonamide and (3R,5S)-1-(5-chloro-2-pyrimidinyl)-N-(4-(2,6-dimethoxyphenyl)-5-(5-methyl-2-furanyl)-4H-1,2,4-triazol-3-yl)-5-hydroxy-3-piperidinesulfonamide]	300
COc1cccc(OC)c1-n1c(NS(=O)(=O)[C@H]2C[C@@H](O)CN(c3ccc(F)c(C#N)c3)C2)nnc1-c1ccc(C)o1 (racemic) [Example 329.0, (3S,5R)-1-(3-Cyano-4-fluorophenyl)-N-(4-(2,6-dimethoxyphenyl)-5-(5-methyl-2-furanyl)-4H-1,2,4-triazol-3-yl)-5-hydroxy-3-piperidinesulfonamide and (3R,5S)-1-(3-cyano-4-fluorophenyl)-N-(4-(2,6-dimethoxyphenyl)-5-(5-methyl-2-furanyl)-4H-1,2,4-triazol-3-yl)-5-hydroxy-3-piperidinesulfonamide]	380
COc1cccc(OC)c1-n1c(NS(=O)(=O)[C@H]2C[C@@H](O)CN(c3ncc(F)cc3C#N)C2)nnc1-c1ccc(C)o1 (racemic) [Example 331.0, (3S,5R)-1-(3-Cyano-5-fluoropyridin-2-yl)-N-(4-(2,6-dimethoxyphenyl)-5-(5-methylfuran-2-yl)-4H-1,2,4-triazol-3-yl)-5-hydroxypiperidine-3-sulfonamide and (3R,5S)-1-(3-cyano-5-fluoropyridin-2-yl)-N-(4-(2,6-dimethoxyphenyl)-5-(5-methylfuran-2-yl)-4H-1,2,4-triazol-3-yl)-5-hydroxypiperidine-3-sulfonamide]	450
COc1cccc(OC)c1-n1c(NS(=O)(=O)[C@H]2C[C@@H](O)CN(c3ncc(F)cn3)C2)nnc1-c1ccc(C)o1 (racemic) [Example 332.0]	450
COc1cccc(OC)c1-n1c(NS(=O)(=O)[C@H]2C[C@@H](O)CN(c3cc(C#N)ccn3)C2)nnc1-c1ccc(C)o1 (racemic) [Example 333.0, (3S,5R)-1-(4-Cyanopyridin-2-yl)-N-(4-(2,6-dimethoxyphenyl)-5-(5-methylfuran-2-yl)-4H-1,2,4-triazol-3-yl)-5-hydroxypiperidine-3-sulfonamide and (3R,5S)-1-(4-cyanopyridin-2-yl)-N-(4-(2,6-dimethoxyphenyl)-5-(5-methylfuran-2-yl)-4H-1,2,4-triazol-3-yl)-5-hydroxypiperidine-3-sulfonamide]	450
COc1cnc(N2C[C@H](O)C[C@H](S(=O)(=O)Nc3nnc(-c4ccc(C)o4)n3-c3c(OC)cccc3OC)C2)nc1 (racemic) [Example 335.0, (3S,5R)—N-(4-(2,6-Dimethoxyphenyl)-5-(5-methylfuran-2-yl)-4H-1,2,4-triazol-3-yl)-5-hydroxy-1-(5-methoxypyrimidin-2-yl)piperidine-3-sulfonamide and (3R,5S)—N-(4-(2,6-dimethoxyphenyl)-5-(5-methylfuran-2-yl)-4H-1,2,4-triazol-3-yl)-5-hydroxy-1-(5-methoxypyrimidin-2-yl)piperidine-3-sulfonamide]	520
COc1cccc(OC)c1-n1c(NS(=O)(=O)[C@@H](C)Cc2ncc(F)c3[nH]cnc23)nnc1-c1ccco1 (single isomer, unassigned) [Example 5.0, (2S)—N-(4-(2,6-dimethoxyphenyl)-5-(2-furanyl)-4H-1,2,4-triazol-3-yl)-1-(7-fluoro-1H-imidazo[4,5-c]pyridin-4-yl)-2-propanesulfonamide or (2R)—N-(4-(2,6-dimethoxyphenyl)-5-(2-furanyl)-4H-1,2,4-triazol-3-yl)-1-(7-fluoro-1H-imidazo[4,5-c]pyridin-4-yl)-2-propanesulfonamide]	950
COc1cccc(OC)c1-n1c(NS(=O)(=O)[C@H](C)Cc2ncc(Cl)cc2NC(C)=O)nnc1-c1ccco1 (single isomer, unassigned) [Example 9.0, N-(5-chloro-2-((2R)-2-((4-(2,6-dimethoxyphenyl)-5-(2-furanyl)-4H-1,2,4-triazol-3-yl)sulfamoyl)propyl)-3-pyridinyl)acetamide or N-(5-chloro-2-((2S)-2-((4-(2,6-dimethoxyphenyl)-5-(2-furanyl)-4H-1,2,4-triazol-3-yl)sulfamoyl)propyl)-3-pyridinyl)acetamide]	91
